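96-well plates; 48 h exposure; 5 concentrations. Endpoints by linear interpolation between flanking doses. Not reached: highest tested concentration assigned. TGI is the concentration that stops growth completely.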
Experiments:
Assay in all cases: NCI anticancer screen, dose series, 48 h
[1] = system: 786-0 renal
[2] = system: A549 NSCLC
[3] = system: ACHN renal
[4] = system: BT-549 breast
[5] = system: CAKI-1 renal
[6] = system: COLO 205 colon
[7] = system: EKVX NSCLC
[8] = system: HCC-2998 colon
[9] = system: HCT-116 colon
[10] = system: HCT-15 colon
[11] = system: HL-60(TB) leukemia
[12] = system: HOP-62 NSCLC
[13] = system: HOP-92 NSCLC
[14] = system: HS 578T breast
[15] = system: HT29 colon
[16] = system: IGROV1 ovarian
[17] = system: K-562 leukemia
[18] = system: KM12 colon
[19] = system: LOX IMVI melanoma
[20] = system: M14 melanoma
[21] = system: MALME-3M melanoma
[22] = system: MCF7 breast
[23] = system: MDA-MB-231 breast
[24] = system: MDA-MB-435
[25] = system: MDA-N
[26] = system: MOLT-4 leukemia
[27] = system: NCI-H226 lung
[28] = system: NCI-H23 lung
[29] = system: NCI-H460 lung
[30] = system: NCI-H522 lung
[31] = system: NCI/ADR-RES ovarian
[32] = system: OVCAR-4 ovarian
[33] = system: OVCAR-5 ovarian
[34] = system: OVCAR-8 ovarian
[35] = system: PC-3 prostate
[36] = system: RPMI-8226 leukemia
[37] = system: RXF 393 renal
[38] = system: SF-268 CNS
[39] = system: SF-295 CNS
[40] = system: SF-539 CNS
[41] = system: SK-MEL-2 melanoma
[42] = system: SK-MEL-28 melanoma
[43] = system: SK-MEL-5 melanoma
[44] = system: SK-OV-3 ovarian
[45] = system: SN12C renal
[46] = system: SNB-19 CNS
[47] = system: SNB-75 CNS
[48] = system: SR leukemia
[49] = system: SW-620 colon
[50] = system: TK-10 renal
[51] = system: U251 CNS
[52] = system: UACC-257 melanoma
[53] = system: UACC-62 melanoma
[54] = system: UO-31 renal
[55] = system: A498 renal
[56] = system: CCRF-CEM leukemia
[57] = system: DU-145 prostate
[58] = system: OVCAR-3 ovarian
[59] = system: T-47D breast

## Brc1ccc(C2=NCSC(c3ccc(Br)cc3)=N2)cc1
[1]
  TGI: 40.4 µM
[2]
  TGI: > 100 µM
[3]
  TGI: > 100 µM
[4]
  TGI: > 100 µM
[5]
  TGI: > 100 µM
[6]
  TGI: > 100 µM
[7]
  TGI: 38.5 µM
[8]
  TGI: 51 µM
[9]
  TGI: 59.2 µM
[10]
  TGI: > 100 µM
[11]
  TGI: 34.8 µM
[12]
  TGI: > 100 µM
[13]
  TGI: > 100 µM
[14]
  TGI: > 100 µM
[15]
  TGI: 86.3 µM
[16]
  TGI: > 100 µM
[17]
  TGI: > 100 µM
[18]
  TGI: > 100 µM
[19]
  TGI: 70.9 µM
[20]
  TGI: > 100 µM
[21]
  TGI: > 100 µM
[22]
  TGI: > 100 µM
[23]
  TGI: > 100 µM
[24]
  TGI: > 100 µM
[25]
  TGI: 54.7 µM
[26]
  TGI: 48.6 µM
[27]
  TGI: > 100 µM
[28]
  TGI: > 100 µM
[29]
  TGI: 53.8 µM
[30]
  TGI: 58.4 µM
[31]
  TGI: > 100 µM
[32]
  TGI: > 100 µM
[33]
  TGI: > 100 µM
[34]
  TGI: > 100 µM
[35]
  TGI: 56.7 µM
[36]
  TGI: 63.5 µM
[37]
  TGI: 44.3 µM
[38]
  TGI: > 100 µM
[39]
  TGI: > 100 µM
[40]
  TGI: 99.2 µM
[41]
  TGI: 32.5 µM
[42]
  TGI: > 100 µM
[43]
  TGI: 64.5 µM
[44]
  TGI: > 100 µM
[45]
  TGI: > 100 µM
[46]
  TGI: > 100 µM
[47]
  TGI: 63.1 µM
[48]
  TGI: 47.4 µM
[49]
  TGI: > 100 µM
[50]
  TGI: 53.8 µM
[51]
  TGI: 53.3 µM
[52]
  TGI: 71 µM
[53]
  TGI: 29.8 µM
[54]
  TGI: 67.2 µM

## N=c1sc2ccccc2n1CCS (tested in a mixture with another compound)
[1]
  TGI: 35.8 µM
[55]
  TGI: 33.2 µM
[2]
  TGI: 37.3 µM
[3]
  TGI: 31.7 µM
[4]
  TGI: 48.4 µM
[5]
  TGI: 45.8 µM
[56]
  TGI: > 100 µM
[6]
  TGI: 27.5 µM
[57]
  TGI: 46 µM
[7]
  TGI: 62.3 µM
[8]
  TGI: 30.8 µM
[9]
  TGI: 30.5 µM
[10]
  TGI: 34.6 µM
[11]
  TGI: 66.9 µM
[12]
  TGI: 39.8 µM
[13]
  TGI: 38.4 µM
[14]
  TGI: > 100 µM
[15]
  TGI: 37.1 µM
[16]
  TGI: 27.5 µM
[17]
  TGI: 44.7 µM
[18]
  TGI: 35.5 µM
[19]
  TGI: 30.5 µM
[20]
  TGI: 30.6 µM
[21]
  TGI: 37.6 µM
[22]
  TGI: 25.6 µM
[23]
  TGI: 35.9 µM
[24]
  TGI: 36.3 µM
[25]
  TGI: > 100 µM
[26]
  TGI: 8.45 µM
[27]
  TGI: 35.3 µM
[28]
  TGI: 32.3 µM
[29]
  TGI: 27.5 µM
[30]
  TGI: 45.4 µM
[31]
  TGI: 45.3 µM
[58]
  TGI: 40.9 µM
[32]
  TGI: 46.9 µM
[33]
  TGI: 57.3 µM
[34]
  TGI: 31.8 µM
[35]
  TGI: > 100 µM
[37]
  TGI: 48.5 µM
[38]
  TGI: 49.1 µM
[39]
  TGI: 42 µM
[40]
  TGI: 19.3 µM
[41]
  TGI: 45.5 µM
[42]
  TGI: 41.4 µM
[43]
  TGI: 28 µM
[44]
  TGI: 53.6 µM
[45]
  TGI: 59.4 µM
[46]
  TGI: 37.6 µM
[47]
  TGI: > 100 µM
[49]
  TGI: > 100 µM
[59]
  TGI: > 100 µM
[50]
  TGI: 48.6 µM
[51]
  TGI: 29.1 µM
[52]
  TGI: 45.8 µM
[53]
  TGI: 26.9 µM
[54]
  TGI: 25.8 µM

## O=C(O)c1cc(CCc2ccc(O)c(O)c2)ccc1O
[1]
  TGI: > 100 µM
[55]
  TGI: > 100 µM
[2]
  TGI: > 100 µM
[3]
  TGI: > 100 µM
[4]
  TGI: > 100 µM
[5]
  TGI: > 100 µM
[56]
  TGI: > 100 µM
[6]
  TGI: > 100 µM
[57]
  TGI: > 100 µM
[8]
  TGI: > 100 µM
[9]
  TGI: > 100 µM
[10]
  TGI: > 100 µM
[11]
  TGI: 59.2 µM
[12]
  TGI: > 100 µM
[14]
  TGI: > 100 µM
[15]
  TGI: > 100 µM
[16]
  TGI: > 100 µM
[17]
  TGI: 45.8 µM
[18]
  TGI: > 100 µM
[20]
  TGI: > 100 µM
[21]
  TGI: > 100 µM
[22]
  TGI: > 100 µM
[24]
  TGI: > 100 µM
[25]
  TGI: 32.3 µM
[26]
  TGI: > 100 µM
[27]
  TGI: > 100 µM
[28]
  TGI: > 100 µM
[29]
  TGI: > 100 µM
[30]
  TGI: > 100 µM
[31]
  TGI: > 100 µM
[58]
  TGI: > 100 µM
[33]
  TGI: > 100 µM
[34]
  TGI: > 100 µM
[35]
  TGI: > 100 µM
[38]
  TGI: > 100 µM
[39]
  TGI: > 100 µM
[40]
  TGI: > 100 µM
[41]
  TGI: > 100 µM
[43]
  TGI: > 100 µM
[44]
  TGI: > 100 µM
[45]
  TGI: > 100 µM
[46]
  TGI: > 100 µM
[47]
  TGI: > 100 µM
[48]
  TGI: 61.7 µM
[49]
  TGI: > 100 µM
[59]
  TGI: > 100 µM
[51]
  TGI: > 100 µM
[52]
  TGI: > 100 µM
[53]
  TGI: > 100 µM
[54]
  TGI: > 100 µM

From PubChem BioAssay (NCI)
